Test results published in paper PMC11938010, “Positive Charge in an Antimalarial Compound Unlocks Broad-Spectrum Antibacterial Activity” (JACS Au, 2025).
Values after ≈ are worked out from the molar mass of the structure shown. Where two headings read alike, the source gives them in different places.

Assays:
Acinetobacter baumannii = experiment: In vitro antibacterial activity (growth inhibition, OD600), A. baumannii; type: cell-based; settings: for MIC: read-out: Ab MIC95
in vitro = settings: human, HepG2 CC50, 48 h, MTT
E. coli K12 = experiment: In vitro antibacterial activity (growth inhibition, OD600), E. coli wild-type; type: cell-based; settings: Escherichia coli
Escherichia coli ∆tolC = experiment: microbe, parasite or virus in culture; type: cell-based; settings: Escherichia coli
[1] = test system: Streptococcus pneumoniae (DSM20566); experiment: In vitro antibacterial activity (MIC), S. pneumoniae; type: cell-based; settings: Streptococcus pneumoniae, DSM20566, read-out: Sp MIC95
[2] = test system: Pseudomonas aeruginosa PA14; experiment: In vitro antibacterial activity (growth inhibition, OD600), P. aeruginosa; type: cell-based; settings: PA14, 50 μM compound, Table 1 and main text, read-out: PA14 inh. at 50 μM
[3] = test system: Plasmodium falciparum NF54; experiment: P. falciparum in vitro drug sensitivity assay on asexual blood stage parasites ([3H]-hypoxanthine incorporation); type: cell-based; settings: Plasmodium falciparum, NF54, Table 1 and main text; read-out: PfNF54 IC50
[4] = test system: Mycobacterium tuberculosis (Mtb) strain H37Rv; experiment: microbe, parasite or virus in culture; type: cell-based; settings: 168 h, 7 days, footnote b: not active at maximum solubility, read-out: MtbH37Rv MIC90
[5] = test system: Staphylococcus aureus ssp. Aureus; experiment: In vitro antibacterial activity (MIC), S. aureus; type: cell-based; settings: Staphylococcus aureus, read-out: Sa MIC95
[6] = 50 μM compound, Table 1 and main text, read-out: Ab inh. at 50 μM
[7] = 50 µM, Table S1, with standard deviation, read-out: Ab inh. at 50 µM (%)
[8] = K12, 50 μM compound, Table 1 and main text, read-out: EcK12 inh. at 50 μM
[9] = Table S2, with standard deviation
[10] = K12, read-out: EcK12 inh. at 50 μM, 50 μM compound, Table 1 and main text
[11] = K12, 50 µM, Table S1, with standard deviation, read-out: EcK12 inh. at 50 µM (%)

SMILES | inhibition at 50 µM (Acinetobacter baumannii; [6]) [%] | inhibition at 50 µM (Acinetobacter baumannii; [7]) [%] | CC50 (in vitro) [nM] | inhibition at 50 µM (E. coli K12; [8]) [%] | MIC (Escherichia coli ∆tolC; read-out: EcΔtolC MIC95) [µM] | MIC (Escherichia coli ∆tolC; read-out: Ec∆tolC MIC95 (µM)) [µM] | MIC ([1]; Table 1 and main text) [µM] | MIC [1, 9] [µM] | inhibition at 50 µM [2] [%] | IC50 [3] [nM] | MIC90 [4] [µM] | MIC ([5]; Table 1 and main text) [µM] | MIC [5, 9] [µM] | inhibition at 50 µM (E. coli K12; [10]) [%] | inhibition at 50 µM (E. coli K12; [11]) [%] | MIC (Acinetobacter baumannii; Table S1, printed inside the inhibition column, with standard deviation, unit from Table 1 footnote) [µM] | MIC (Acinetobacter baumannii; printed inside the Ab inhibition column, Table 1 and main text) [µM] | MIC (E. coli K12; K12, Table S1, printed inside the inhibition column, with standard deviation, unit from Table 1 footnote, read-out: EcK12 MIC95) [µM]
O=C(Nc1ccc(CN2CCNCC2)cc1)c1cc(-c2cc(Cl)ccc2O)[nH]n1 [Compound 4A] | 24 | 24.2 ± 7.7 | 13000 | 34 | 40 (≈ 16.5 µg/mL) | 40 ± 8 (≈ 16.5 µg/mL) | 40 (≈ 16.5 µg/mL) | 40 ± 7 (≈ 16.5 µg/mL) | 62 | 270 | 64 (≈ 26.4 µg/mL) | > 50 | > 50 |  |  |  |  | 
N=C(N)N1CCN(c2cccc(NC(=O)c3cc(-c4cc(Cl)ccc4O)[nH]n3)c2)CC1 [Compound 5G] | < 10 |  | > 50000 | 32 | 11 (≈ 4.84 µg/mL) | 11 ± 2 (≈ 4.84 µg/mL) | 48 (≈ 21.1 µg/mL) | 48 ± 1 (≈ 21.1 µg/mL) | 31 | 930 | 64 (≈ 28.2 µg/mL) | 23.1 (≈ 10.2 µg/mL) | 23.1 ± 0.5 (≈ 10.2 µg/mL) |  |  |  |  | 
N=C(N)N1CCN(c2ccc(NC(=O)c3cc(-c4cc(Cl)ccc4O)[nH]n3)cc2)CC1 [Compound 6G] | 32 |  | > 50000 |  | 9 (≈ 3.96 µg/mL) | 9 ± 3 (≈ 3.96 µg/mL) | 25 (≈ 11 µg/mL) | 25 ± 2 (≈ 11 µg/mL) | 55 | 440 | 64 (≈ 28.2 µg/mL) | 26 (≈ 11.4 µg/mL) | 26 ± 2 (≈ 11.4 µg/mL) | ≥ 45 |  |  |  | 
O=C(Nc1cccc(CNC2=NCCN2)c1)c1cc(-c2cc(Cl)ccc2O)[nH]n1 [Compound 7C] | 33 |  | > 50000 | 29 | 13 (≈ 5.34 µg/mL) | 13 ± 3 (≈ 5.34 µg/mL) | 48.2 (≈ 19.8 µg/mL) | 48.2 ± 0.8 (≈ 19.8 µg/mL) | 41 | 390 | 32 (≈ 13.1 µg/mL) | 22.3 (≈ 9.16 µg/mL) | 22.3 ± 0.6 (≈ 9.16 µg/mL) |  | 29.4 ± 0.6 |  |  | 
N=C(N)NCc1cccc(NC(=O)c2cc(-c3cc(Cl)ccc3O)[nH]n2)c1 [Compound 7G] | 24 |  | > 50000 |  | 13 (≈ 5 µg/mL) | 13 ± 3 (≈ 5 µg/mL) | 49 (≈ 18.9 µg/mL) | 49 (≈ 18.9 µg/mL) | 56 | 210 | 64 (≈ 24.6 µg/mL) | 22 (≈ 8.47 µg/mL) | 22 ± 2 (≈ 8.47 µg/mL) | ≥ 45 |  |  |  | 
O=C(Nc1ccc(CNC2=NCCN2)cc1)c1cc(-c2cc(Cl)ccc2O)[nH]n1 [Compound 8C] | 12 |  | > 50000 | < 10 | 21.5 (≈ 8.83 µg/mL) | 21.5 (≈ 8.83 µg/mL) | > 50 | > 50 | 10 | 670 | > 64 | 49 (≈ 20.1 µg/mL) | 49 ± 1 (≈ 20.1 µg/mL) |  |  |  |  | 
N=C(N)NCc1ccc(NC(=O)c2cc(-c3cc(Cl)ccc3O)[nH]n2)cc1 [Compound 8G, 5-(5-Chloro-2-hydroxyphenyl)-N-(4-(guanidinomethyl)phenyl)-1H-pyrazole-3-carboxamide] | 19.9 |  | > 50000 | 29 | 47.5 (≈ 18.3 µg/mL) | 47.5 (≈ 18.3 µg/mL) | > 50 | > 50 | 41 | 420 | > 64 | 22 (≈ 8.47 µg/mL) | 22 ± 1 (≈ 8.47 µg/mL) |  |  |  |  | 
NCc1cc(NC(=O)c2cc(-c3cc(Cl)ccc3O)[nH]n2)cc(C(F)(F)F)c1 [Compound 9A, N-(3-(Aminomethyl)-5-(trifluoromethyl)phenyl)-5-(5-chloro-2-hydroxyphenyl)-1H-pyrazole-3-carboxamide] |  |  | 7000 | < 10 | 8 (≈ 3.29 µg/mL) | 8 ± 3 (≈ 3.29 µg/mL) | 11 (≈ 4.52 µg/mL) | 10.8 ± 2.5 (≈ 4.44 µg/mL) | < 10 | 82 | 32 (≈ 13.1 µg/mL) | 12.1 (≈ 4.97 µg/mL) | 12.1 ± 0.6 (≈ 4.97 µg/mL) |  |  | 48.9 ± 0.5 (≈ 20.1 µg/mL) | 49 (≈ 20.1 µg/mL) | 
O=C(Nc1cc(CNC2=NCCN2)cc(C(F)(F)F)c1)c1cc(-c2cc(Cl)ccc2O)[nH]n1 [Compound 9C, 5-(5-Chloro-2-hydroxyphenyl)-N-(3-(((4,5-dihydro-1H-imidazol-2-yl)amino)methyl)-5-(trifluoromethyl)phenyl)-1H-pyrazole-3-carboxamide] | 47 |  | > 50000 |  | 7 (≈ 3.35 µg/mL) | 7 ± 1 (≈ 3.35 µg/mL) | 15 (≈ 7.18 µg/mL) | 15 ± 4 (≈ 7.18 µg/mL) | 18 | 517 | 16 (≈ 7.66 µg/mL) | 9 (≈ 4.31 µg/mL) | 9 ± 2 (≈ 4.31 µg/mL) | < 10 | 84 ± 2 |  |  | 
N=C(N)NCc1cc(NC(=O)c2cc(-c3cc(Cl)ccc3O)[nH]n2)cc(C(F)(F)F)c1 [Compound 9G] | 59 |  | > 50000 |  | 5 (≈ 2.26 µg/mL) | 5 ± 2 (≈ 2.26 µg/mL) | > 50 | > 50 | 50 | 78 | 32 (≈ 14.5 µg/mL) | 8 (≈ 3.62 µg/mL) | 8 ± 3 (≈ 3.62 µg/mL) |  |  |  |  | 46 ± 2 (≈ 20.8 µg/mL)
NCc1ccc(NC(=O)c2cc(-c3cc(Cl)ccc3O)[nH]n2)cc1C(F)(F)F [Compound 10A] | 86 |  | 13000 | 61 | 22.9 (≈ 9.41 µg/mL) | 22.9 ± 0.1 (≈ 9.41 µg/mL) | 23 (≈ 9.45 µg/mL) | 23 ± 3 (≈ 9.45 µg/mL) | < 10 | 150 | 64 (≈ 26.3 µg/mL) | 29 (≈ 11.9 µg/mL) | 29 ± 3 (≈ 11.9 µg/mL) |  |  |  |  | 
O=C(Nc1ccc(CNC2=NCCN2)c(C(F)(F)F)c1)c1cc(-c2cc(Cl)ccc2O)[nH]n1 [Compound 10C, 5-(5-Chloro-2-hydroxyphenyl)-N-(4-(((4,5-dihydro-1H-imidazol-2-yl)amino)methyl)-3-(trifluoromethyl)phenyl)-1H-pyrazole-3-carboxamide] | 47 | 49.6 ± 0.9 | > 50000 |  | 5.5 (≈ 2.63 µg/mL) | 5.5 ± 0.8 (≈ 2.63 µg/mL) | 14 (≈ 6.7 µg/mL) | 14 ± 2 (≈ 6.7 µg/mL) | 29 | 404 | 16 (≈ 7.66 µg/mL) | 8 (≈ 3.83 µg/mL) | 8 ± 2 (≈ 3.83 µg/mL) | 77 |  |  |  | 
CC(C)(C)OC(=O)N1CCN=C1NCc1ccc(NC(=O)c2cc(-c3cc(Cl)ccc3O)[nH]n2)cc1C(F)(F)F [Compound 10D, tert-Butyl 2-((4-(5-(5-chloro-2-hydroxyphenyl)-1H-pyrazole-3-carboxamido)-2-(trifluoromethyl)benzyl)amino)-4,5-dihydro-1H-imidazole-1-carboxylate] | < 10 |  | 11000 | 17 | 18 (≈ 10.4 µg/mL) | 18 ± 6 (≈ 10.4 µg/mL) | > 50 | > 50 | < 10 | 140 | 16 (≈ 9.26 µg/mL) | 11.6 (≈ 6.72 µg/mL) | 11.6 ± 0.2 (≈ 6.72 µg/mL) |  |  |  |  | 
